Earlier results as cited in article PMC3848336, “Aurora Isoform Selectivity: Design and Synthesis of Imidazo[4,5-b]pyridine Derivatives as Highly Selective Inhibitors of Aurora-A Kinase in Cells” (Journal of Medicinal Chemistry, 2013).

Tested on: Aurora-A/N-Myc complex
Parameters: method as in PMID 23792191
Conditions: cited from earlier work

| Structure (SMILES) | disruption of the Aurora-A/N-Myc complex |
| --- | --- |
| COc1cc(Nc2ncc3c(n2)-c2ccc(Cl)cc2C(c2c(F)cccc2OC)=NC3)ccc1C(=O)O [MLN8237] | disrupt the Aurora-A/N-Myc complex |
| O=C(O)c1ccc(Nc2ncc3c(n2)-c2ccc(Cl)cc2C(c2c(F)cccc2F)=NC3)cc1 [MLN8054] | disrupt the Aurora-A/N-Myc complex |
| O=C(O)[C@]1(Cc2cccc(Nc3nccs3)n2)CC[C@@H](Oc2cccc(Cl)c2F)CC1 [MK-5108] | not disrupted |
